# Measured values: patent US6809094B2, “Pharmaceutical composition for the treatment of CNS and other disorders” (Pfizer Inc, priority 2000, dated 2004)
# Counter-ions that a name gives are not always drawn.
row,Structure (SMILES),melting point
1,c1ccc2cc3oc(N4CCN5CCC4CC5)nc3cc2c1,> 300 °C
2,c1ccc2c(c1)ccc1oc(N3CCN4CCC3CC4)nc12,167.2 °C
3,O=[N+]([O-])c1ccc2nc(N3CCN4CCC3CC4)oc2c1,296.4 °C
4,Brc1cnc2oc(N3CCN4CCC3CC4)nc2c1,> 300 °C
5,O=[N+]([O-])c1cccc2oc(N3CCN4CCC3CC4)nc12,232.1 °C
6,O=[N+]([O-])c1ccc2oc(N3CCN4CCC3CC4)nc2c1,240.2 °C
7,O=[N+]([O-])c1cc2nc(N3CCN4CCC3CC4)oc2cc1Cl,242.3 °C
8,O=[N+]([O-])c1cc2oc(N3CCN4CCC3CC4)nc2cc1Cl (as salt: hydrochloride),> 300 °C

# Continued, values first:
row,melting point,Structure (SMILES)
1,281.3 °C,c1ccc(-c2ccc3nc(N4CCN5CCC4CC5)oc3c2)cc1
2,> 300 °C,Ic1ccc2oc(N3CCN4CCC3CC4)nc2c1
3,> 300 °C,c1cncc(-c2ccc3oc(N4CCN5CCC4CC5)nc3c2)c1
4,> 300 °C,c1ccc2[nH]c(N3CCN4CCC3CC4)nc2c1
5,> 300 °C,c1ccc(-c2ccc3oc(N4CCN5CCC4CC5)nc3c2)cc1
